{
  "source": "patent US10231966B2",
  "about": "“Combination therapy for treating pulmonary hypertension” (priority 2016, dated 2019)",
  "key": {"[1]": {"biological_target": "T1, phosphorylated PDGFRα (Y751) (Rattus norvegicus, UniProt P20786)", "T1 construct": "from tissue; host or cells: rat lung sections (male SD rats)", "T1 sequence (P20786 24-1088)": "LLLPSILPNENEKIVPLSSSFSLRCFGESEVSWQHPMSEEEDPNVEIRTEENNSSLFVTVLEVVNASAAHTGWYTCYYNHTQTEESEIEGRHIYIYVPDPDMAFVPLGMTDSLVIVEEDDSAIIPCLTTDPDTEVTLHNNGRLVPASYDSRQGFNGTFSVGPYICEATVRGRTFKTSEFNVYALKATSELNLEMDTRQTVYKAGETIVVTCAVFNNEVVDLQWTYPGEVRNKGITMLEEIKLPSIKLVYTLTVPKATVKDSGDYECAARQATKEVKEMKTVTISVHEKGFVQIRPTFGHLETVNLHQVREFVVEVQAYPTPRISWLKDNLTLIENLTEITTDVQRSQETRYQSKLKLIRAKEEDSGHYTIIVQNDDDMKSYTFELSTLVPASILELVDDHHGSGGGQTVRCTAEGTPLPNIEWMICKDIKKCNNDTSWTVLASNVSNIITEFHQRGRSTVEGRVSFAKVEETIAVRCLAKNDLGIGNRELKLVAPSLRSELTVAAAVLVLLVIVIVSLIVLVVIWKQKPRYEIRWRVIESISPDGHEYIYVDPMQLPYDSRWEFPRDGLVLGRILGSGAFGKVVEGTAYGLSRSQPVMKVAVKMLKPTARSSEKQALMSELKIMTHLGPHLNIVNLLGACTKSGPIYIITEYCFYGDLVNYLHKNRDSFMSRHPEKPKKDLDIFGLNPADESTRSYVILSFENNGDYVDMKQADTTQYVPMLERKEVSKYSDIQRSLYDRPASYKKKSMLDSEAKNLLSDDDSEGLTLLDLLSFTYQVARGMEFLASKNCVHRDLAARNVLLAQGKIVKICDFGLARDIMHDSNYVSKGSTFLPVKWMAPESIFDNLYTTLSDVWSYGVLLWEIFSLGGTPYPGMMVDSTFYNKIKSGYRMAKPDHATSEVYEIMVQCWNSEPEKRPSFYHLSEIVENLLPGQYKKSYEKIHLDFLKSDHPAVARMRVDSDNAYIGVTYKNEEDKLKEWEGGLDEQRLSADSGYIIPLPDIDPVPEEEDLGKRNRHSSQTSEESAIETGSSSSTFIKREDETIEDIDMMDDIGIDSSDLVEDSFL", "test": "Immunohistochemistry of lung sections for pPDGFRα in the AAV-PDGFB SU5416 hypoxia model", "type": "in vivo", "details": "vs V-V and TA-V", "procedure": "(§1) Four weeks later, 20 mg/kg of semaxanib (SU5416) was administered using intraperitoneal (i.p.) injection, and the rats were housed in a hypoxia chamber at fraction of inspired oxygen (FiO2) 10% for 3 weeks. […] Daily treatments were administered starting day 2 after removing the rats from the hypoxia chamber and were continued for 4 weeks (28 days). Antigen retrieval was performed using heat-induced epitope retrieval. Immunohistochemistry of lung sections was performed for PDGFBB, total PDGFRα, total PDGFRβ, pPDGFRα, and pPDGFRβ. Signal detection was performed with an EXPOSE horseradish peroxidase/diaminobenzidine (HRP/DAB) kit."}, "[2]": {"biological_target": "T2, pPDGFRβ (Y1021) (Rattus norvegicus, UniProt Q05030)", "T2 construct": "Lung tissue samples were homogenized in pH 7.4 lysis buffer; from tissue; host or cells: rat lung (male SD rats)", "T2 sequence (Q05030 32-1097)": "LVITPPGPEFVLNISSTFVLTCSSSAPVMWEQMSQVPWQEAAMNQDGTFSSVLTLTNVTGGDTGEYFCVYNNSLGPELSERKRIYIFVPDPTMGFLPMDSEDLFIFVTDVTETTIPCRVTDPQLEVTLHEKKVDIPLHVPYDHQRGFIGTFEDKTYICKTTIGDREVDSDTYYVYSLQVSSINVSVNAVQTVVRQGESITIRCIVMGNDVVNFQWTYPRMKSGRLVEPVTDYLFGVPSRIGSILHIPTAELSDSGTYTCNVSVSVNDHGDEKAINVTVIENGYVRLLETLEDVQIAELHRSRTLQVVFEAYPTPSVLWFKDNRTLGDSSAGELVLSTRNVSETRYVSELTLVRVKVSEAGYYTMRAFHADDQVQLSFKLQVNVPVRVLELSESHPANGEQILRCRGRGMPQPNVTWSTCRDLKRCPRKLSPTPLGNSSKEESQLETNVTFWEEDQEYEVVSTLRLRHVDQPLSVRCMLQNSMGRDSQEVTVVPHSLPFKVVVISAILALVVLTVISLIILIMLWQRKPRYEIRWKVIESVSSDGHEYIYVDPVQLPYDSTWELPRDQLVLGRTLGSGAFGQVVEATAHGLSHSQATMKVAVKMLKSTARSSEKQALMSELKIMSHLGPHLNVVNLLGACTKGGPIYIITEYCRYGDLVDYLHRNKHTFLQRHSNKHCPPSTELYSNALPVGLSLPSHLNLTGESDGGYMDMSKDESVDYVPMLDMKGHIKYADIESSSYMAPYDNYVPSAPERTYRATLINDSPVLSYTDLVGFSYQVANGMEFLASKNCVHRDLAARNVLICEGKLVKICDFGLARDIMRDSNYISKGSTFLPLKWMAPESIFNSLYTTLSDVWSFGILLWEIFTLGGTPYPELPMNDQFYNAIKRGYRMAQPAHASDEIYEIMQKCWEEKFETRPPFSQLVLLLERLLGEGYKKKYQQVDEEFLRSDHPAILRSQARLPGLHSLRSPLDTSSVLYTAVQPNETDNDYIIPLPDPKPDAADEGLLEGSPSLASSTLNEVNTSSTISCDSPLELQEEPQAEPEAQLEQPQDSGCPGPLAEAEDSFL", "test": "Western blot of pPDGFRβ (Y1021) in lung lysates of rats with pulmonary hypertension after inhaled Compound 1", "type": "in vivo", "details": "pPDGFRβ (Y1021) vs total PDGFRβ"}, "[3]": {"system": "AAV-PDGFB overexpression SU5416 hypoxia rat model of PH", "test": "AAV-PDGFB SU5416 hypoxia study: RVSP, right ventricular hypertrophy, lumen/media ratio", "type": "in vivo"}, "[4]": {"biological_target": "PDGFRβ (Homo sapiens, UniProt P09619)", "sequence (P09619 33-1106)": "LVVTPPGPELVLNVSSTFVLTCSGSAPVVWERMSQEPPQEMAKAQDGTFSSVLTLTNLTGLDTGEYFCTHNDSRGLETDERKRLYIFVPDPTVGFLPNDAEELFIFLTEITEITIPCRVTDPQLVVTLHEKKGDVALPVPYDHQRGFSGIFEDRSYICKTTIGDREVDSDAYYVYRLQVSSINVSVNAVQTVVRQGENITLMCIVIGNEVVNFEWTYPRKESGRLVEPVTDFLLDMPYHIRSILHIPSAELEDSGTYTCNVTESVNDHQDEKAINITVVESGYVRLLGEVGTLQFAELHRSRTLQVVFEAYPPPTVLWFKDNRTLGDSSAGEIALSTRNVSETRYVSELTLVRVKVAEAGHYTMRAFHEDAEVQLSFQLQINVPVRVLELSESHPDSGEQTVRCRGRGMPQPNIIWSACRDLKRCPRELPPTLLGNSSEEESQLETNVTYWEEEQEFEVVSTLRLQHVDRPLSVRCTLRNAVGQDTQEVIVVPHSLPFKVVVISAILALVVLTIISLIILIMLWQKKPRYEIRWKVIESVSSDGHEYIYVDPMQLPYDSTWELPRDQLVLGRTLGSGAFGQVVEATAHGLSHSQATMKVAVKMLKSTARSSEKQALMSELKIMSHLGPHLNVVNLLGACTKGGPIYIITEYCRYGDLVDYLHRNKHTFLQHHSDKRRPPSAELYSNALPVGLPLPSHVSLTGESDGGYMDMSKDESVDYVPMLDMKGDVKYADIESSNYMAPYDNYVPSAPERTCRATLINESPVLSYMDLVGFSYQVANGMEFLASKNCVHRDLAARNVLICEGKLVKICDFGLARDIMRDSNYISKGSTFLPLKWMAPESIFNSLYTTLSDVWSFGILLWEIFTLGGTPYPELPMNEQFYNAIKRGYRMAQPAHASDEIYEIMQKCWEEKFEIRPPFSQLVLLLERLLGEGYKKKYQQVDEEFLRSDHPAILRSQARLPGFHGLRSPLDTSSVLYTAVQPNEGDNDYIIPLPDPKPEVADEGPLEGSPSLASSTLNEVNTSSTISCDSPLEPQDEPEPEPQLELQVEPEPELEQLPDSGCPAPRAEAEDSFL", "details": "human lung fibroblasts"}, "[5]": {"system": "PDGFB gene expression", "test": "PDGFB lung gene expression (RT-qPCR) in the AAV-PDGFB SU5416 hypoxia rat model", "type": "in vivo", "details": "RT-qPCR normalized to 18S, 4 weeks treatment", "procedure": "Four weeks later, 20 mg/kg of semaxanib (SU5416) was administered using intraperitoneal (i.p.) injection, and the rats were housed in a hypoxia chamber at fraction of inspired oxygen (FiO2) 10% for 3 weeks. […] Daily treatments were administered starting day 2 after removing the rats from the hypoxia chamber and were continued for 4 weeks (28 days). RNA from lung tissue was isolated using TRIzol™ reagent. The RNA concentration was measured using a Nanodrop™ 1000 Spectrophotometer. Equal amounts of RNA of each sample were transcribed to cDNA using a high-capacity cDNA Reverse Transcription kit. Reverse transcription (RT)-qPCR reactions were set up using TaqMan™ Gene Expression Master Mix and TaqMan™ primers/probes for PDGFB and 18S. The gene expression assay was carried out using a QuantStudio™ 6 Flex system. Gene expression was normalized to the expression of 18S, which was used as a housekeeping gene."}, "[6]": {"biological_target": "T2, pPDGFRβ (Y1021)", "test": "Western blot of lung pPDGFRβ (Y1021) in the AAV-PDGFB SU5416 hypoxia model", "type": "in vivo", "details": "vs V-V and TA-V, total PDGFRβ and β actin controls", "procedure": "Four weeks later, 20 mg/kg of semaxanib (SU5416) was administered using intraperitoneal (i.p.) injection, and the rats were housed in a hypoxia chamber at fraction of inspired oxygen (FiO2) 10% for 3 weeks. […] Daily treatments were administered starting day 2 after removing the rats from the hypoxia chamber and were continued for 4 weeks (28 days). […] Lysates were normalized and separated on 7.5% or 12% polyacrylamide gels and transferred to nitrocellulose membranes. After blocking, the membranes were probed with one of the following antibodies: anti-PDGFRβ, anti-phospho ([…])-PDGFRβ, pMYPT, MYPT, pSTAT3, or STAT3. The samples were incubated overnight on a shaker, followed by a 1 hour incubation with secondary antibodies conjugated with HRP. Bound antibodies were detected by chemiluminescence using an enhanced chemiluminescence (ECL) detection system, and quantified by densitometry using a Licor C-Digit® Blot Scanner."}, "[7]": {"details": "rat, in vivo, 0.4 mg/kg"}, "[8]": {"biological_target": "T3, phosphorylated PDGFRβ (Y1021) (Rattus norvegicus, UniProt Q05030)", "T3 construct": "from tissue; host or cells: rat lung (male SD rats)", "T3 sequence (Q05030 32-1097)": "as the sequence (Q05030 32-1097) above", "test": "Immunohistochemistry of lung sections for pPDGFRβ in the AAV-PDGFB SU5416 hypoxia model", "type": "in vivo", "details": "vs V-V and TA-V", "procedure": "as §1"}, "[9]": {"test": "in vivo", "details": "male, Sprague Dawley, rat"}, "[10]": {"system": "PDGFRβ isoform, PDGFRα isoform", "details": "background statement; cited from earlier work"}, "[11]": {"system": "rat monocrotaline model of PAH", "details": "background statement; cited from earlier work"}, "[12]": {"system": "patients with advanced PAH", "details": "background statement; cited from earlier work"}, "[13]": {"details": "inhaled or intranasal, 0.4 mg/kg"}},
  "note": "Where two headings read alike, the source gives them in different places.",
  "data": [
    {"smiles": "COc1ccc(-c2cncc(N[C@@H](C)c3cccc(NC(=O)c4cncc(C)c4)c3)n2)cc1OC", "note": "[Compound 1]", "values": [
      {"measurement": "phosphorylated PDGFRα (Y751) in the lungs", "setting": "[1]", "value": "decrease"},
      {"measurement": "pPDGFRβ levels in lung compared to animals treated with the vehicle", "setting": "[2]", "value": "decreased pPDGFRβ levels"},
      {"measurement": "lumen/media ratio of pulmonary arterioles", "setting": "[3]; H&E lung sections, four weeks treatment, mean±SEM", "value": "0.76±0.04"},
      {"measurement": "AVG RVSP", "setting": "[3]; Table 4, four weeks treatment", "value": 44.30, "unit": "mm Hg"},
      {"measurement": "% Reduction RVSP", "setting": "[3]; Table 4, vs V-V", "value": 29, "unit": "%"},
      {"measurement": "decrease of RV/(LV+IVS) ratio compared to the vehicle (V-V) group", "setting": "[3]; four weeks treatment", "value": 25, "unit": "%"},
      {"measurement": "decrease of RVSP compared to vehicle (V-V)", "setting": "[3]; four weeks treatment", "value": 29, "unit": "%"},
      {"measurement": "RVSP", "setting": "[3]; four weeks, tadalafil 10 mg/kg and ambrisentan 10 mg/kg gavage once daily, Compound 1 0.6 mg/kg inhaled twice daily, mean±SEM", "value": "44.3±1.9", "unit": "mm Hg"},
      {"measurement": "right ventricular hypertrophy, RV/(LV+IVS)", "setting": "[3]; ratio of RV weight to LV plus interventricular septum weight, four weeks treatment, mean±SEM", "value": "0.36±0.01"},
      {"measurement": "fold more potent than imatinib at inhibiting PDGFB-stimulated phosphorylation of PDGFRβ", "setting": "[4]", "value": "about 2.5 fold"},
      {"measurement": "effect on levels of PDGFB gene expression", "setting": "[5]", "value": "did not affect levels of PDGFB gene expression significantly"},
      {"measurement": "pPDGFRβ (Y1021) in the lungs", "setting": "[6]", "value": "decreases"},
      {"measurement": "maximum arterial and venous average concentrations", "setting": "[7]; male, Sprague Dawley", "value": "about 1 μg/mL"},
      {"measurement": "time after administration at which average arterial and venous concentrations reached zero", "setting": "[7]; male, Sprague Dawley", "value": "about 400 minutes"},
      {"measurement": "AUC(0-inf)", "setting": "[7]; inhaled or intranasal", "value": 25403.578, "unit": "µg·min/g"},
      {"measurement": "AUC(0-t)", "setting": "[7]; inhaled or intranasal", "value": 23583.976, "unit": "µg·min/g"},
      {"measurement": "phosphorylated PDGFRβ (Y1021) in the lungs", "setting": "[8]", "value": "decrease"},
      {"measurement": "Kp", "setting": "[9]; 0.4 mg/kg", "value": "20 to 80"},
      {"measurement": "AUC(0-inf)", "setting": "[9]; [13]", "value": 2130, "unit": "ng·h/mL"},
      {"measurement": "AUC(0-t)", "setting": "[9]; [13]", "value": 1940, "unit": "ng·h/mL"},
      {"measurement": "half-life", "setting": "[9]; inhaled or intranasal, terminal half-life in lung (t1/2β)", "value": 6.43, "unit": "h"},
      {"measurement": "half-life", "setting": "[9]; inhaled or intranasal, terminal half-life in plasma", "value": 2.08, "unit": "h"}
    ]},
    {"smiles": "Cc1ccc(NC(=O)c2ccc(CN3CCN(C)CC3)cc2)cc1Nc1nccc(-c2cccnc2)n1", "note": "[imatinib]", "values": [
      {"measurement": "potency against PDGFR isoforms", "setting": "[10]", "value": "less potent against the PDGFRβ isoform than the PDGFRα isoform"},
      {"measurement": "right ventricular systolic pressure (RVSP)", "setting": "[11]", "value": "decreases"},
      {"measurement": "survival", "setting": "[11]", "value": "improves survival"},
      {"measurement": "cardiopulmonary hemodynamics", "setting": "[12]", "value": "improves"}
    ]}
  ]
}
